Measured values reported in PubChem BioAssay (NCI).
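At the GI50, growth is halved. TGI denotes the concentration required for complete inhibition of growth.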

How the values were obtained:
Assay in all cases: NCI tumour cell line growth inhibition, 384-well format
[1] = test system: HS 578T breast
[2] = test system: SF-539 CNS
[3] = test system: CAKI-1 renal
[4] = test system: HCC-2998 colon
[5] = test system: NCI-H226 lung
[6] = test system: PC-3 prostate
[7] = test system: OVCAR-3 ovarian
[8] = test system: NCI/ADR-RES ovarian
[9] = test system: U251 glioblastoma
[10] = test system: ACHN renal
[11] = test system: SK-OV-3 ovarian
[12] = test system: BT-549 breast
[13] = test system: A549 NSCLC
[14] = test system: OVCAR-8 ovarian
[15] = test system: SK-MEL-28 melanoma
[16] = test system: DU-145 prostate
[17] = test system: TK-10 renal
[18] = test system: NCI-H460 NSCLC
[19] = test system: SNB-19 CNS
[20] = test system: CCRF-CEM leukemia
[21] = test system: T-47D breast
[22] = test system: MDA-MB-468 breast
[23] = test system: K-562 leukemia
[24] = test system: LOX IMVI melanoma
[25] = test system: MDA-MB-231 breast
[26] = test system: M14 melanoma
[27] = test system: SF-295 CNS
[28] = test system: 786-0 renal
[29] = test system: MDA-MB-435 melanoma
[30] = test system: UACC-257 melanoma
[31] = test system: HOP-92 NSCLC
[32] = test system: OVCAR-5 ovarian
[33] = test system: HCT-15 colon
[34] = test system: SN12C renal
[35] = test system: UACC-62 melanoma
[36] = test system: SK-MEL-5 melanoma
[37] = test system: SR leukemia
[38] = test system: SF-268 CNS
[39] = test system: MALME-3M melanoma
[40] = test system: NCI-H23 lung
[41] = test system: NCI-H322M lung
[42] = test system: COLO 205 colon
[43] = test system: OVCAR-4 ovarian
[44] = test system: HOP-62 NSCLC
[45] = test system: KM12 colon
[46] = test system: IGROV1 ovarian
[47] = test system: SW-620 colon
[48] = test system: MCF7 breast
[49] = test system: A498 renal
[50] = test system: HT29 colon
[51] = test system: SNB-75 CNS
[52] = test system: EKVX NSCLC
[53] = test system: MOLT-4 leukemia
[54] = test system: RXF 393 renal
[55] = test system: NCI-H522 lung

Structure (SMILES): Nc1ncc(-c2cnn(CCO)c2)c2scc(-c3ccc(NC(=O)Nc4cccc(F)c4)cc3)c12
- GI50 [1]: 226 nM
- TGI [1]: 943 nM
- GI50 [2]: 169 nM
- TGI [2]: 1110 nM
- GI50 [3]: 212 nM
- TGI [3]: 1200 nM
- GI50 [4]: 1160 nM
- TGI [4]: 2550 nM
- GI50 [5]: 238 nM
- TGI [5]: 2090 nM
- GI50 [6]: 1270 nM
- TGI [6]: 3730 nM
- GI50 [7]: 188 nM
- TGI [7]: 2010 nM
- GI50 [8]: 363 nM
- TGI [8]: 10000 nM
- GI50 [9]: 812 nM
- TGI [9]: 2170 nM
- GI50 [10]: 352 nM
- TGI [10]: 1770 nM
- GI50 [11]: 297 nM
- TGI [11]: 1300 nM
- GI50 [12]: 323 nM
- TGI [12]: 1280 nM
- GI50 [13]: 263 nM
- TGI [13]: 3770 nM
- GI50 [14]: 315 nM
- TGI [14]: 2130 nM
- GI50 [15]: 402 nM
- TGI [15]: 1720 nM
- GI50 [16]: 462 nM
- TGI [16]: 2380 nM
- GI50 [17]: 920 nM
- TGI [17]: 3620 nM
- GI50 [18]: < 10 nM
- TGI [18]: 1060 nM
- GI50 [19]: 836 nM
- TGI [19]: 2550 nM
- GI50 [20]: < 10 nM
- TGI [20]: < 10 nM
- GI50 [21]: 1450 nM
- TGI [21]: 3310 nM
- GI50 [22]: 18.8 nM
- TGI [22]: 74.9 nM
- GI50 [23]: 16.7 nM
- TGI [23]: 42.9 nM
- GI50 [24]: 318 nM
- TGI [24]: 1320 nM
- GI50 [25]: 1010 nM
- TGI [25]: 3190 nM
- GI50 [26]: 147 nM
- TGI [26]: 1140 nM
- GI50 [27]: 186 nM
- TGI [27]: 1370 nM
- GI50 [28]: 373 nM
- TGI [28]: 1740 nM
- GI50 [29]: 317 nM
- TGI [29]: 1890 nM
- GI50 [30]: 311 nM
- TGI [30]: 1390 nM
- GI50 [31]: 238 nM
- TGI [31]: 1100 nM
- GI50 [32]: 612 nM
- TGI [32]: 2200 nM
- GI50 [33]: 349 nM
- TGI [33]: 1720 nM
- GI50 [34]: 179 nM
- TGI [34]: 555 nM
- GI50 [35]: 376 nM
- TGI [35]: 1640 nM
- GI50 [36]: 807 nM
- TGI [36]: 2070 nM
- GI50 [37]: < 10 nM
- TGI [37]: < 10 nM
- GI50 [38]: 354 nM
- TGI [38]: 1920 nM
- GI50 [39]: 53.5 nM
- TGI [39]: 646 nM
- GI50 [40]: 178 nM
- TGI [40]: 603 nM
- GI50 [41]: 634 nM
- TGI [41]: 2890 nM
- GI50 [42]: < 10 nM
- TGI [42]: 241 nM
- GI50 [43]: 674 nM
- TGI [43]: 2380 nM
- GI50 [44]: 309 nM
- TGI [44]: 1810 nM
- GI50 [45]: < 10 nM
- TGI [45]: 1210 nM
- GI50 [46]: 385 nM
- TGI [46]: 2550 nM
- GI50 [47]: 242 nM
- TGI [47]: 1130 nM
- GI50 [48]: 318 nM
- TGI [48]: 1830 nM
- GI50 [49]: 312 nM
- TGI [49]: 1720 nM
- GI50 [50]: 507 nM
- TGI [50]: 2640 nM
- GI50 [51]: 172 nM
- TGI [51]: 740 nM
- GI50 [52]: 1030 nM
- TGI [52]: 2980 nM
- GI50 [53]: < 10 nM
- TGI [53]: < 10 nM
- GI50 [54]: 275 nM
- TGI [54]: 1460 nM
- GI50 [55]: 220 nM
- TGI [55]: 928 nM
